Kd data for five compounds are collected here from article PMC9007336, “Identification and molecular characterization of a novel non-specific lipid transfer protein (TdLTP2) from durum wheat” (PLoS ONE, 2022).

The structures appear in SMILES notation.

T1 sequence (A0A446PDN1 entry or part of it): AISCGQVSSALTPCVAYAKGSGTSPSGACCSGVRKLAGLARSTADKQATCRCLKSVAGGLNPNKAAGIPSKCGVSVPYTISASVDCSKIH

The test has as its target T1, rTdLTP2 (Triticum turgidum, UniProt A0A446PDN1).
T1 construct: gene LTP2; mature protein expressed from pPICZalphaA in Pichia pastoris, non-tagged, gel filtration and RP-HPLC
Put plainly: hydrophobic ELISA plate coated with lipid, anti-LTP detection, one-site fit. Type of test: binding. The source says:
hydrophobic ELISA plate coated with lipid, anti-LTP detection, one-site fit on rTdLTP2 | high kd values specifically for oleic, palmitic acids and for sterol (Fig 5B and 5C) | rTdLTP2 can bind a wide range of lipids as oleic, linoleic, stearic, and palmitic acids
On to `CCCCCCCCCCCCCCCCCC(=O)O` [stearic acid], for which the affinity, expressed as Kd, was 470 nM. This lies in the sub-micromolar range.

In the case of `CCCCCCCCCCCCCCCC(=O)O` [Palmitic acid], the Kd came to 310 nM.

The compound `CCCCC/C=C\C/C=C\CCCCCCCC(=O)O` [linoleic acid] showed a Kd of 590 nM. This Kd lies about 1.9-fold higher than the previous one.

`CC[C@H](CC[C@@H](C)[C@H]1CC[C@H]2[C@@H]3CC=C4C[C@@H](O)CC[C@]4(C)[C@H]3CC[C@]12C)C(C)C` [B-sitosterol] registered an equilibrium dissociation constant (Kd) of 300 nM. This Kd is about 2-fold lower than that of the compound before.

As to `CCCCCCCC/C=C\CCCCCCCC(=O)O` [oleic acid], the Kd turned out to be 300 nM. That is a sub-micromolar value.
